Experiment [1] addresses Cannabinoid receptor 1 (Rattus norvegicus) (UniProt P20272). As to the kind of experiment: Percentage affinity towards Cannabinoid receptor 1 using [3H]CP-55940 as radioligand in rat forebrain membranes. The experiment is classed as cell membranes. The conditions noted are these: Membrane.
Experiment [2] concerns the target T1, Fatty-acid amide hydrolase 1 (Rattus norvegicus, UniProt P97612).
T1 sequence (P97612 whole entry): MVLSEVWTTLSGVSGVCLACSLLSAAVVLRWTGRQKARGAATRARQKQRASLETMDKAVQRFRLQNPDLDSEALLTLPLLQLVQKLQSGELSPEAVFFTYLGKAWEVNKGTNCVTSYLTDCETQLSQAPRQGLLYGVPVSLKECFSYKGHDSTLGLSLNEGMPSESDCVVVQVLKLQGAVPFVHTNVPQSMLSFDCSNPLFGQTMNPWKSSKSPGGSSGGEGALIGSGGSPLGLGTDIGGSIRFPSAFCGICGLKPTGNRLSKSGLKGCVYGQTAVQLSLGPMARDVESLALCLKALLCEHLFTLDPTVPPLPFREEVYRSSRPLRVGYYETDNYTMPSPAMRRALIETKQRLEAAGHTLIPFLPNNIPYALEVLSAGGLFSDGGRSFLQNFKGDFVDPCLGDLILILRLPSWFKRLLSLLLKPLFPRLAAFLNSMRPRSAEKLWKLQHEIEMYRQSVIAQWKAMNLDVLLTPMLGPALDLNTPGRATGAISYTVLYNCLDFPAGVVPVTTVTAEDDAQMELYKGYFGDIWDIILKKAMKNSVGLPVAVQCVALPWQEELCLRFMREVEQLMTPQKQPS
Briefly: Binding affinity towards Fatty-acid amide hydrolase (FAAH) in rat forebrain membranes. The experiment is classed as cell membranes, Membrane.

Experiment [3] has as its target T2, Fatty-acid amide hydrolase 1 (Rattus norvegicus) (UniProt P97612).
T2 sequence (whole entry): T1 sequence (P97612 whole entry)
As to the kind of experiment: Inhibitory effect on the Fatty-acid amide hydrolase (FAAH) activity was determined by % inhibition of anandamide hydrolysis at 10 uM concentration of compound. The experiment is classed as functional.

Experiment [4] deals with T2, Fatty-acid amide hydrolase 1 (Rattus norvegicus). As to the kind of experiment: Inhibitory effect on the Fatty-acid amide hydrolase (FAAH) activity was determined by % inhibition of anandamide hydrolysis at 1 uM concentration of compound. The experiment is classed as functional.
Experiment [5] addresses Cannabinoid receptor 1 (Rattus norvegicus, UniProt P20272). As to the kind of experiment: Binding affinity towards Cannabinoid receptor 1 in rat forebrain membranes using [3H]CP-55940 as radioligand. The experiment is classed as cell membranes, Membrane.

As usually defined, the Ki is the equilibrium dissociation constant of an inhibitor or competing ligand from its target. High values mean weaker binding, low ones tighter binding.

Cannabinoid receptor 1, sequence (P20272 whole entry): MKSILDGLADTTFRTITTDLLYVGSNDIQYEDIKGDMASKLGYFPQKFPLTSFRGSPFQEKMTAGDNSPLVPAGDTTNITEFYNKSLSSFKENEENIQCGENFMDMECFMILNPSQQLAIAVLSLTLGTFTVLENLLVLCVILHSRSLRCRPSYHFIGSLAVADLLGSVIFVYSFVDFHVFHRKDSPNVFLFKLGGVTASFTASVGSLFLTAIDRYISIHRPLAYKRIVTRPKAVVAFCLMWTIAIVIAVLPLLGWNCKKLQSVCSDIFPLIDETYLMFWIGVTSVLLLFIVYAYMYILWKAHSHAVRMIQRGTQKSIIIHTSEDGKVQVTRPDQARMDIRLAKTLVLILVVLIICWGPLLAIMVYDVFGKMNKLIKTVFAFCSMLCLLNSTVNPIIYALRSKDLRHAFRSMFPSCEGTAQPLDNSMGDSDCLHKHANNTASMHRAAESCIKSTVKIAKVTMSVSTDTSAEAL
Cannabinoid receptor 1 (Rattus norvegicus), sequence (P20272 whole entry): as above

In experiment [1], `CCCCC/C=C\C/C=C\C/C=C\C/C=C\CCCC(=O)NCCO` [ANANDAMIDE] gave an Affinity of 19%. Affinity in experiment [2] was put at a Ki of 3 µM.
For `CCCCC/C=C\C/C=C\CCCCCCCC(=O)CCCO`, in experiment [1], the Affinity is 72%. The Inhibition of anandamide hydrolysis in experiment [3] and in experiment [4] was 100% throughout.
Regarding `CCCCC/C=C\C/C=C\C/C=C\C/C=C\CCCC(=O)CCCO`, in experiment [1], the Affinity was determined as 38%. The affinity in experiment [5], expressed as Ki, was 0.36 µM. Besides, the Inhibition of anandamide hydrolysis in experiment [3] was 78%; in experiment [4], 91%.
On to `CCCCC/C=C\C/C=C\C/C=C\C/C=C\CCC(C)(C)C(=O)OCCO`, for which, in experiment [1], the Affinity came out at 100%. Besides, the results for the inhibition constant Ki in experiment [5] and in experiment [2] were more than 10 µM and 2.1 µM, respectively. The Inhibition of anandamide hydrolysis was 12% in experiment [3] and 90% in experiment [4].
`CCCCC/C=C\C/C=C\C/C=C\C/C=C\CCCC(=O)OCCO`: the Affinity in experiment [1] was 83%. The molecule further displayed a Ki in experiment [5] of more than 10 µM. The Inhibition of anandamide hydrolysis in experiment [3] is 70%; in experiment [4], 100%.
